Measurements reported in paper PMC3959874 (European journal of dermatology : EJD, 2013).
Like-named read-outs stand apart in the source and are kept apart here.

Columns and labels:
Endothelin ETB = Endothelin ETB (Homo sapiens, UniProt P24530); assay: Radioligand binding assay; details: read-out: Percent inhibition of specific radioligand binding
[1] = tested on: GABAA, Flunitrazepam, Cent ral; assay: Radioligand binding assay; set-up: species or system rat; details: 10 μM; 25 °C, 120 min
GABAA, Muscimol, Central = assay: Radioligand binding assay; set-up: species or system rat; details: 10 μM; 4 °C, 10 min
Glutamate, NMDA, Glycine = Glutamate, NMDA, Glycine (Rattus norvegicus, UniProt P35439); assay: Radioligand binding assay; details: read-out: Percent inhibition of specific radioligand binding
Glutamate, Kainate = assay: Radioligand binding assay; set-up: species or system rat; details: 10 μM; 4 °C, 60 min
Opiate 51 (OP1, DOP) = Opiate 51 (OP1, DOP) (Homo sapiens, UniProt P41143); assay: Radioligand binding assay; details: read-out: Percent inhibition of specific radioligand binding
[2] = Serum drug concentration after topical skin application; details: C57BL/6, mouse, serum
Estrogen ERa = Estrogen ERa (Homo sapiens, UniProt P03372); assay: Radioligand binding assay; details: read-out: Percent inhibition of specific radioligand binding
Dopamine D1 = Dopamine D1 (Homo sapiens, UniProt P21728); assay: Radioligand binding assay; details: read-out: Percent inhibition of specific radioligand binding
Phorbol Ester = assay: Radioligand binding assay; set-up: species or system mouse; details: 10 μM; 25 °C, 60 min
hERG potassium channel = hERG potassium channel (Homo sapiens, UniProt Q12809); assay: Radioligand binding assay; details: human
CYP2D6 = CYP2D6 (Homo sapiens, UniProt P10635); assay: Cytochrome P450 enzyme assay; format: in vitro ADME; details: human
Bradykinin B2 = Bradykinin B2 (Homo sapiens, UniProt P30411); assay: Radioligand binding assay; details: read-out: Percent inhibition of specific radioligand binding
[3] = target: Transporter, Norepinephrine (NET) (Homo sapiens, UniProt P23975); assay: Radioligand binding assay; details: read-out: Percent inhibition of specific radioligand binding
Chain of Transporter, Norepinephrine (NET) (P23975 whole entry): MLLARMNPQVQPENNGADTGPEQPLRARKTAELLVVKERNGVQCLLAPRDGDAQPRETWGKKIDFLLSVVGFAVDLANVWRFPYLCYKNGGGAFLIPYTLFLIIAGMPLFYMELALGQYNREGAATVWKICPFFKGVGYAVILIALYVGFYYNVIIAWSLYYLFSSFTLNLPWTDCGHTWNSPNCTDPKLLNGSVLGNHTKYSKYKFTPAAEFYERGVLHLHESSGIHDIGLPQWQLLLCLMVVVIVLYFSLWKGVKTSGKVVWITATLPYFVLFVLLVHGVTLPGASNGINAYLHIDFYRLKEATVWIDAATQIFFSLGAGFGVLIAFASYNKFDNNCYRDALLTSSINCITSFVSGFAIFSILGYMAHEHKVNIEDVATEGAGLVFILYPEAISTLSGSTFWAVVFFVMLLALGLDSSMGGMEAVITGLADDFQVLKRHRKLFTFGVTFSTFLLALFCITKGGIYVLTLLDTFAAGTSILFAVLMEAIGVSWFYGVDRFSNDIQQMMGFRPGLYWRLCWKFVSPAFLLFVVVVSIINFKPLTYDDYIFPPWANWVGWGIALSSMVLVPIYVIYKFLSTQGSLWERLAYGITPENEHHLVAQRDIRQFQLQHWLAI

Histamine H3 = Histamine H3 (Homo sapiens, UniProt Q9Y5N1); assay: Radioligand binding assay; details: read-out: Percent inhibition of specific radioligand binding
Chain of Histamine H3 (Q9Y5N1 whole entry): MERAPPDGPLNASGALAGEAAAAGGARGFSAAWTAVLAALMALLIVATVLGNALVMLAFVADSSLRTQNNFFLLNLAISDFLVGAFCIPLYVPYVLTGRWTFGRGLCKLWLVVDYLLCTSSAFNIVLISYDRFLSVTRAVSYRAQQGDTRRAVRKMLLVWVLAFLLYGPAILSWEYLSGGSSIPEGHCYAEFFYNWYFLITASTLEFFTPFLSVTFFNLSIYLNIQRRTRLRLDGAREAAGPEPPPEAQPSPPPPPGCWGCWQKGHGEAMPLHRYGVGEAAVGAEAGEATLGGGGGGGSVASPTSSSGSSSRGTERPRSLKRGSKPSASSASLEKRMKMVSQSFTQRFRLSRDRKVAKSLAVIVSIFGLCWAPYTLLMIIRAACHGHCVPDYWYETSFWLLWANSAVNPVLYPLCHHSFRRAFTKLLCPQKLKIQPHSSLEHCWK

CYP2C19 = CYP2C19 (Homo sapiens, UniProt P33261); assay: Cytochrome P450 enzyme assay; format: in vitro ADME; details: human
Purinergic P2, = assay: Radioligand binding assay; set-up: species or system rat; details: 10 μM; 25 °C, 60 min
Interleukin IL-1 = Interleukin IL-1 (Mus musculus, UniProt P13504); assay: Radioligand binding assay; details: read-out: Percent inhibition of specific radioligand binding
Chain of Interleukin IL-1 (P13504 20-576): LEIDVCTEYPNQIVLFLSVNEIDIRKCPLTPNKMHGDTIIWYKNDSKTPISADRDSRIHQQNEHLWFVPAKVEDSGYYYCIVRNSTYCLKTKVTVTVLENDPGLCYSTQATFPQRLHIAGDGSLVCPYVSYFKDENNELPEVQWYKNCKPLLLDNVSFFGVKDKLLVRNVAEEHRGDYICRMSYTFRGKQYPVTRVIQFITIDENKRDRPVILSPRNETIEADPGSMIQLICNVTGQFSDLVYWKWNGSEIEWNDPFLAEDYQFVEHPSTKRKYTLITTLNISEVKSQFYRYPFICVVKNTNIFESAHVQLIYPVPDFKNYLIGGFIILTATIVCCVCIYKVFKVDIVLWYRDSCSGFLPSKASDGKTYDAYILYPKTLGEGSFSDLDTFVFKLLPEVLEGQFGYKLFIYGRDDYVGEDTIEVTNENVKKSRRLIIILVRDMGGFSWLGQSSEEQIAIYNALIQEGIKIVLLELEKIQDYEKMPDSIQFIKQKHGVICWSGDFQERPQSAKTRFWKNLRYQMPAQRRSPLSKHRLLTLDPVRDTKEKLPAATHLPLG

Glutamate, NMDA, Agonism = assay: Radioligand binding assay; set-up: species or system rat; details: 10 μM; 4 °C, 20 min
Neuropeptide Y Y2 = Neuropeptide Y Y2 (Homo sapiens, UniProt P49146); assay: Radioligand binding assay; details: read-out: Percent inhibition of specific radioligand binding
[4] = format: in vivo, mice; details: for Body weight change after a single intravenous injection of the MTD: 150 mg/kg TMX-202 or 15 mg/kg IMQ i.v. (figure 4)
[5] = target: Leukotriene, Cysteinyl CysLT 1 (Homo sapiens, UniProt Q9Y271); assay: Radioligand binding assay; details: read-out: Percent inhibition of specific radioligand binding
Chain of Leukotriene, Cysteinyl CysLT 1 (Q9Y271 whole entry): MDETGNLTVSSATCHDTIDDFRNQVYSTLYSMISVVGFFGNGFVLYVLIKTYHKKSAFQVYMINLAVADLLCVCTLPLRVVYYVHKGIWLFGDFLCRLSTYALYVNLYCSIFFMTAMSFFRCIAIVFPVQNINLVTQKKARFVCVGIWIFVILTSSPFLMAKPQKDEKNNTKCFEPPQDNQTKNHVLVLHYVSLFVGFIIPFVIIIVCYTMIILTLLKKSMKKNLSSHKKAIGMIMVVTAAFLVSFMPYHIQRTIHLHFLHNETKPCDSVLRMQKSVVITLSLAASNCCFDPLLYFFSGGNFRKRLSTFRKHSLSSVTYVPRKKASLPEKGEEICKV

[6] = tested on: Calcium Channel L-Type, Dihydropyridine; assay: Radioligand binding assay; set-up: species or system rat; details: 10 μM; 25 °C, 90 min
[7] = tested on: Glutamate, NMDA, Phencyclidine; assay: Radioligand binding assay; set-up: species or system rat; details: 10 μM; 25 °C, 45 min
Adenosine A1 = Adenosine A1 (Homo sapiens, UniProt P30542); assay: Radioligand binding assay; details: read-out: Percent inhibition of specific radioligand binding
Chain of Adenosine A1 (P30542 whole entry): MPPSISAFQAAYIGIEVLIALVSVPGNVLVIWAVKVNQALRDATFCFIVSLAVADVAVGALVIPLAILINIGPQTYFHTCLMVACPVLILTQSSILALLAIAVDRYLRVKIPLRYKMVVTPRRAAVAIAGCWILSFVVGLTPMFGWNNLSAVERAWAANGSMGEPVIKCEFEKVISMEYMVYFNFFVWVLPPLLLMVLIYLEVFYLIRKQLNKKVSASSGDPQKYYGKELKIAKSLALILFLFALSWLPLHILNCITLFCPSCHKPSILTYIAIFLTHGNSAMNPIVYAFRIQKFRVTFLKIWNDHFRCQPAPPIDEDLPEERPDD

Purinergic P2x = assay: Radioligand binding assay; set-up: species or system rabbit; details: 10 μM; 25 °C, 30 min
human PBMC = details: up to 1 μM; ref [24]; cited from earlier work
CYP1A2 = CYP1A2 (Homo sapiens, UniProt P05177); assay: Cytochrome P450 enzyme assay; format: in vitro ADME; details: human
Chain of CYP1A2 (P05177 whole entry): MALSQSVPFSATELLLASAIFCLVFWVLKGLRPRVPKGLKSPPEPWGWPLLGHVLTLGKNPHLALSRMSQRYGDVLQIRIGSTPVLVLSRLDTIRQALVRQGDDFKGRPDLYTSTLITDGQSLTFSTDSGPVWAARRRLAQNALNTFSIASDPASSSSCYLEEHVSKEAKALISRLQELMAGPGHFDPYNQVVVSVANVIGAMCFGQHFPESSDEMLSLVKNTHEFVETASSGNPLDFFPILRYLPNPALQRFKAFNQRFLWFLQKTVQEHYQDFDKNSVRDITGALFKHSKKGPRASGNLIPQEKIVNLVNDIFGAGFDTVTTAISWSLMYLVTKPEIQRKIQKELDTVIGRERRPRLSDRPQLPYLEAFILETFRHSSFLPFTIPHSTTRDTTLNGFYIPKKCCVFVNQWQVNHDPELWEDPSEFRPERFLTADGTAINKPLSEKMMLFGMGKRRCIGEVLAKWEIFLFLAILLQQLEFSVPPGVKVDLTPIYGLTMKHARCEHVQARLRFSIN

CYP3A4 = CYP3A4 (Homo sapiens, UniProt P08684); assay: Cytochrome P450 enzyme assay; format: in vitro ADME; details: human
Cannabinoid CB1 = Cannabinoid CB1 (Homo sapiens, UniProt P21554); assay: Radioligand binding assay; details: read-out: Percent inhibition of specific radioligand binding
Chain of Cannabinoid CB1 (P21554 whole entry): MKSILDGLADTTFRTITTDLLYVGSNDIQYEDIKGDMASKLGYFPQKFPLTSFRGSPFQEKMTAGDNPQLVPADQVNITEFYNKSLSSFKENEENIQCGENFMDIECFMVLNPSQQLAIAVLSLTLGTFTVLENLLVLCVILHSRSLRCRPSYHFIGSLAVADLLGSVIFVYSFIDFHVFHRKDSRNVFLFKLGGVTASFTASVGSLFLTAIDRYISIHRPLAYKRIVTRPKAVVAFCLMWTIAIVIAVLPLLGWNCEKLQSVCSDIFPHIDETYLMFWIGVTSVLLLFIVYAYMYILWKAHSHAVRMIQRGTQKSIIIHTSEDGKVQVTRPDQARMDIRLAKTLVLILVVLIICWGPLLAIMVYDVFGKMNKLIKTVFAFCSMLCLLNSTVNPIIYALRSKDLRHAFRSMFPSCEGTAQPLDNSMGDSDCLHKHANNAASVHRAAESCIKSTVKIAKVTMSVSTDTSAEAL

Nicotinic Acetylcholine = assay: Radioligand binding assay; set-up: species or system human; details: 10 μM; 25 °C, 60 min
[8] = target: Serotonin (5-Hydroxytryptam ine) 5-HT2B (Homo sapiens, UniProt P41595); assay: Radioligand binding assay; details: read-out: Percent inhibition of specific radioligand binding
Glucocorticoid = Glucocorticoid (Homo sapiens, UniProt P04150); assay: Radioligand binding assay; details: read-out: Percent inhibition of specific radioligand binding
Chain of Glucocorticoid (P04150 whole entry): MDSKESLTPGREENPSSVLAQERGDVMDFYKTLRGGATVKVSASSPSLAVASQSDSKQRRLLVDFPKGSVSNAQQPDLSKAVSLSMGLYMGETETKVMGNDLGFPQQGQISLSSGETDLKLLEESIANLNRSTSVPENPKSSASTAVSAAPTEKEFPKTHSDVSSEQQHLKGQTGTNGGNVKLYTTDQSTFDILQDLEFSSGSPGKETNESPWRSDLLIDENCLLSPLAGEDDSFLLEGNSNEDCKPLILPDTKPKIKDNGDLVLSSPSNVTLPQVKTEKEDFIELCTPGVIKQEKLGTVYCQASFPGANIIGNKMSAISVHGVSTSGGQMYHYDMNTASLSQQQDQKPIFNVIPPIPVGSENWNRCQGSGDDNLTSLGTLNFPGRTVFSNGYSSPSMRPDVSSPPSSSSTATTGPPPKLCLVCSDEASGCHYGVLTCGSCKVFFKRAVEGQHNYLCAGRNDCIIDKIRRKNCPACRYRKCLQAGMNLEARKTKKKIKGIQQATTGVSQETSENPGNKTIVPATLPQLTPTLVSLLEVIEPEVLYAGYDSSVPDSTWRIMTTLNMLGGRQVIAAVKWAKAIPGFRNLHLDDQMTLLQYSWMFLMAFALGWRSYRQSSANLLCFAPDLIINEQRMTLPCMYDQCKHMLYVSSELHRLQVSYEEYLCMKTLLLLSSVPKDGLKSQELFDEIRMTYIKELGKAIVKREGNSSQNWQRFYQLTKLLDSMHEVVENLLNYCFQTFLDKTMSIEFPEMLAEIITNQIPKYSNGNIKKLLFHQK

CYP2C9 = CYP2C9 (Homo sapiens, UniProt P11712); assay: Cytochrome P450 enzyme assay; format: in vitro ADME; details: human
Calcium Channel N-Type = Calcium Channel N-Type (Rattus norvegicus, UniProt Q02294); assay: Radioligand binding assay; details: read-out: Percent inhibition of specific radioligand binding
Transporter, GABA = Transporter, GABA (Rattus norvegicus, UniProt P23978); assay: Radioligand binding assay; details: read-out: Percent inhibition of specific radioligand binding
Muscarinic M2 = Muscarinic M2 (Homo sapiens, UniProt P08172); assay: Radioligand binding assay; details: read-out: Percent inhibition of specific radioligand binding
[9] = target: Nicotinic Acetylcholine a1, Bungarotoxin (Homo sapiens, UniProt P02708+P07510+Q07001); assay: Radioligand binding assay; details: read-out: Percent inhibition of specific radioligand binding
Bradykinin B1 = Bradykinin B1 (Homo sapiens, UniProt P46663); assay: Radioligand binding assay; details: read-out: Percent inhibition of specific radioligand binding
Chain of Bradykinin B1 (P46663 whole entry): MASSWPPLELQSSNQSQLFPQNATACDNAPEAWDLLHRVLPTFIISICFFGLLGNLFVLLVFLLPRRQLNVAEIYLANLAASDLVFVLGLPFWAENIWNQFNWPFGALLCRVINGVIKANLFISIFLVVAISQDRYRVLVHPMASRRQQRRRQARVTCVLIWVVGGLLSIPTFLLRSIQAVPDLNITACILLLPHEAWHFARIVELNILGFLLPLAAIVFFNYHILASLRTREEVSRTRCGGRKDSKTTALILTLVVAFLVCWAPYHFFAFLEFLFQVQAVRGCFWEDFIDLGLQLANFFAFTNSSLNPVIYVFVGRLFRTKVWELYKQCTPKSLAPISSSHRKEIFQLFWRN

Imidazoline I2, Central = assay: Radioligand binding assay; set-up: species or system rat; details: 10 μM; 25 °C, 30 min
[10] = target: Androgen (Testosterone) AR (Rattus norvegicus, UniProt P15207); assay: Radioligand binding assay; details: read-out: Percent inhibition of specific radioligand binding
Adrenergic β1 = Adrenergic β1 (Homo sapiens, UniProt P08588); assay: Radioligand binding assay; details: read-out: Percent inhibition of specific radioligand binding
[11] = tested on: Calcium Channel L-Type, Benzothiazepine; assay: Radioligand binding assay; set-up: species or system rat; details: 10 μM; 4 °C, 180 min
[12] = target: Epidermal Growth Factor (EG F) (Homo sapiens, UniProt P00533); assay: Radioligand binding assay; details: read-out: Percent inhibition of specific radioligand binding
Thyroid Hormone = assay: Radioligand binding assay; set-up: species or system rat; details: 10 μM; 4 °C, 18 hrs
[13] = target: Serotonin (5-Hydroxytryptam ine) 5-HT1A (Homo sapiens, UniProt P08908); assay: Radioligand binding assay; details: read-out: Percent inhibition of specific radioligand binding
Chain of Serotonin (5-Hydroxytryptam ine) 5-HT1A (P08908 whole entry): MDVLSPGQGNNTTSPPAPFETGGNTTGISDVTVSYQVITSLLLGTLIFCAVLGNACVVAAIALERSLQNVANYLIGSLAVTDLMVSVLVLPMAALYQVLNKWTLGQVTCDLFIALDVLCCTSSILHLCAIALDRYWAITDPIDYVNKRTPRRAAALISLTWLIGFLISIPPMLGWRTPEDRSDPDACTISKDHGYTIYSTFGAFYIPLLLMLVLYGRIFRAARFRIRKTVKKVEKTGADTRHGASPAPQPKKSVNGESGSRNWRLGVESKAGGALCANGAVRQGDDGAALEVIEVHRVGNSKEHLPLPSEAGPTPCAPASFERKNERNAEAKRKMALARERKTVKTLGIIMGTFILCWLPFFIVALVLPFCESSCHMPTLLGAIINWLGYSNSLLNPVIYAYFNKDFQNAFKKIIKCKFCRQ

Dopamine D4.2 = Dopamine D4.2 (Homo sapiens, UniProt P21917, DEL265-296); assay: Radioligand binding assay; details: read-out: Percent inhibition of specific radioligand binding
Potassium Channel [KATP] = assay: Radioligand binding assay; set-up: species or system human; details: 10 μM; 25 °C, 120 min
[14] = target: Platelet Activating Factor (PA F) (Homo sapiens, UniProt P25105); assay: Radioligand binding assay; details: read-out: Percent inhibition of specific radioligand binding
Prostanoid EP4 = Prostanoid EP4 (Homo sapiens, UniProt P35408); assay: Radioligand binding assay; details: read-out: Percent inhibition of specific radioligand binding

CC(C)Cn1cnc2c(N)nc3ccccc3c21 [IMQ, imiquimod, reference compound]
inhibition at 10 µM (Endothelin ETB): 0% | Percent inhibition of specific radioligand binding [1]: 37% | Percent inhibition of specific radioligand binding (GABAA, Muscimol, Central): 19% | inhibition at 10 µM (Glutamate, NMDA, Glycine): -6% | Percent inhibition of specific radioligand binding (Glutamate, Kainate): −8% | inhibition at 10 µM (Opiate 51 (OP1, DOP)): 5% | concentration at 1 h [2]: 0.139 ± 0.0612 ng/mL | inhibition at 10 µM (Estrogen ERa): 0% | inhibition at 10 µM (Dopamine D1): 66% | Percent inhibition of specific radioligand binding (Phorbol Ester): 21% | inhibition at 60 min, 10 µM (hERG potassium channel): 45% | inhibition at 45 min, 10 µM (CYP2D6): 29% | inhibition at 10 µM (Bradykinin B2): -1% | inhibition at 10 µM [3]: 30% | inhibition at 10 µM (Histamine H3): 4% | inhibition at 45 min, 10 µM (CYP2C19): 10% | Percent inhibition of specific radioligand binding (Purinergic P2,): 10% | inhibition at 10 µM (Interleukin IL-1): 5% | Percent inhibition of specific radioligand binding (Glutamate, NMDA, Agonism): 2% | inhibition at 10 µM (Neuropeptide Y Y2): 6% | MTD at 8 days ([4]; C57BL/6, mouse, in vivo, iv): 15 mg/kg | MTD (molar) ([4]; C57BL/6 mice, intravenous administration): approximately 62.5 μmoles/kg | Body weight change after a single intravenous injection of the MTD ([4]; Tlr7−/− or Myd88−/− mice): did not result in body weight changes | Body weight change after a single intravenous injection of the MTD ([4]; WT mice): did not result in body weight changes | inhibition at 10 µM [5]: 10% | Percent inhibition of specific radioligand binding [6]: −14% | Percent inhibition of specific radioligand binding [7]: 4% | inhibition at 10 µM (Adenosine A1): 50% | Percent inhibition of specific radioligand binding (Purinergic P2x): −7% | IFN-γ secretion in human PBMC (human PBMC): does not stimulate IFN-γ secretion | inhibition at 30 min, 10 µM (CYP1A2): 66% | inhibition at 30 min, 10 µM (CYP3A4): 1% | inhibition at 10 µM (Cannabinoid CB1): -4% | Percent inhibition of specific radioligand binding (Nicotinic Acetylcholine): 3% | inhibition at 10 µM [8]: 45% | inhibition at 10 µM (Glucocorticoid): -2% | inhibition at 45 min, 10 µM (CYP2C9): 3% | inhibition at 10 µM (Calcium Channel N-Type): 2% | inhibition at 10 µM (Transporter, GABA): 2% | inhibition at 10 µM (Muscarinic M2): 3% | inhibition at 10 µM [9]: 7% | inhibition at 10 µM (Bradykinin B1): 4% | Percent inhibition of specific radioligand binding (Imidazoline I2, Central): 57% | inhibition at 10 µM [10]: 7% | inhibition at 10 µM (Adrenergic β1): 19% | Percent inhibition of specific radioligand binding [11]: 4% | inhibition at 10 µM [12]: -1% | Percent inhibition of specific radioligand binding (Thyroid Hormone): −5% | inhibition at 10 µM [13]: 19% | inhibition at 10 µM (Dopamine D4.2): 2% | Percent inhibition of specific radioligand binding (Potassium Channel [KATP]): −5% | inhibition at 10 µM [14]: 2% | inhibition at 10 µM (Prostanoid EP4): 6%
